{"source": "patent US10166218B2", "about": "“3-(1H-indol-2-yl)-1H-pyrazolo[3,4-C]pyridines and therapeutic uses thereof” (Samumed, LLC, priority 2015, dated 2019)", "note": "pEC50: −log10 of the molar value."}
{"test_system": "primary human fibroblasts derived from IPF patients (LL29 cells) treated with TGF-β1; α-smooth muscle actin (αSMA)", "experiment": "Inhibition of the fibrotic process: αSMA staining in TGF-β1 treated primary human fibroblasts from IPF patients (LL29 cells)", "type": "cell-based", "conditions": "Fibroblast, 96 h, TGF-β1 20 ng/mL, 4 days, % cells positive for αSMA", "method_in_brief": "(§1)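 Potency reflects suppression of TGF-β1-driven αSMA expression in IPF patient fibroblasts over 4 days. Values are EC50s from normalized αSMA-positive cell counts, with % inhibition at 10 μM when EC50 exceeded 10 μM.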"}
{"smiles": "Cc1ccncc1-c1cc2c(-c3cc4c(-c5cccc(F)c5)cccc4[nH]3)n[nH]c2cn1", "note": "[Compound 5, 3-(4-(3-Fluorophenyl)-1H-indol-2-yl)-5-(4-methylpyridin-3-yl)-1H-pyrazolo [3,4-c]pyridine]", "pEC50": 6.22}
{"smiles": "O=C(Nc1cncc(-c2cc3c(-c4cc5c(-c6cccc(F)c6)cccc5[nH]4)n[nH]c3cn2)c1)c1ccccc1", "note": "[Compound 11, N-(5-(3-(4-(3-Fluorophenyl)-1H-indol-2-yl)-1H-pyrazolo[3,4-c]pyridin-5-yl)pyridin-3-yl)benzamide]", "pEC50": 6.06}
{"smiles": "O=C(Nc1cncc(-c2cc3c(-c4cc5c(-c6cccc(F)c6)cccc5[nH]4)n[nH]c3cn2)c1)C1CCC1", "note": "[Compound 21, N-(5-(3-(4-(3-Fluorophenyl)-1H-indol-2-yl)-1H-pyrazolo[3,4-c]pyridin-5-yl)pyridin-3-yl)cyclobutanecarboxamide]", "pEC50": 5.77}
{"smiles": "CC(C)CC(=O)Nc1cncc(-c2cc3c(-c4cc5c(-c6ccc(F)cc6)cccc5[nH]4)n[nH]c3cn2)c1", "note": "[Compound 30, N-(5-(3-(4-(4-Fluorophenyl)-1H-indol-2-yl)-1H-pyrazolo[3,4-c]pyridin-5-yl)pyridin-3-yl)-3-methylbutanamide]", "pEC50": 5.64}
{"smiles": "O=C(Cc1ccccc1)Nc1cncc(-c2cc3c(-c4cc5c(-c6ccc(F)cc6)cccc5[nH]4)n[nH]c3cn2)c1", "note": "[Compound 38, N-(5-(3-(4-(4-Fluorophenyl)-1H-indol-2-yl)-1H-pyrazolo[3,4-c]pyridin-5-yl)pyridin-3-yl)-2-phenylacetamide]", "pEC50": 6.18}
{"smiles": "O=C(Nc1cncc(-c2cc3c(-c4cc5c(-c6ccc(F)cc6)cccc5[nH]4)n[nH]c3cn2)c1)C1CCCCC1", "note": "[Compound 51, N-(5-(3-(4-(4-Fluorophenyl)-1H-indol-2-yl)-1H-pyrazolo[3,4-c]pyridin-5-yl)pyridin-3-yl)cyclohexanecarboxamide]", "pEC50": 6.09}
{"smiles": "Fc1ccc(-c2cccc3[nH]c(-c4n[nH]c5cnc(-c6cncnc6)cc45)cc23)cc1", "note": "[Compound 55, 3-(4-(4-Fluorophenyl)-1H-indol-2-yl)-5-(pyrimidin-5-yl)-1H-pyrazolo[3,4-c]pyridine]", "pEC50": 5.57}
{"smiles": "CC(C)C(=O)Nc1cncc(-c2cc3c(-c4cc5c(-c6ccccc6F)cccc5[nH]4)n[nH]c3cn2)c1", "note": "[Compound 65, N-(5-(3-(4-(2-Fluorophenyl)-1H-indol-2-yl)-1H-pyrazolo[3,4-c]pyridin-5-yl)pyridin-3-yl)isobutyramide]", "pEC50": 5.95}
{"smiles": "CCCCC(=O)Nc1cncc(-c2cc3c(-c4cc5c(-c6ccccc6F)cccc5[nH]4)n[nH]c3cn2)c1", "note": "[Compound 75, N-(5-(3-(4-(2-Fluorophenyl)-1H-indol-2-yl)-1H-pyrazolo[3,4-c]pyridin-5-yl)pyridin-3-yl)pentanamide]", "pEC50": 5.69}
{"smiles": "O=C(Nc1cncc(-c2cc3c(-c4cc5c(-c6ccccc6F)cccc5[nH]4)n[nH]c3cn2)c1)C1CC1", "note": "[Compound 76, N-(5-(3-(4-(2-Fluorophenyl)-1H-indol-2-yl)-1H-pyrazolo[3,4-c]pyridin-5-yl)pyridin-3-yl)cyclopropanecarboxamide]", "pEC50": 6.51}
{"smiles": "Cc1ccncc1-c1cc2c(-c3cc4c(-c5ccncc5)cccc4[nH]3)n[nH]c2cn1", "note": "[Compound 117, 5-(4-Methylpyridin-3-yl)-3-(4-(pyridin-4-yl)-1H-indol-2-yl)-1H-pyrazolo [3,4-c]pyridine]", "pEC50": 5.98}
{"smiles": "CC(C)(C)C(=O)Nc1cncc(-c2cc3c(-c4cc5c(-c6ccncc6)cccc5[nH]4)n[nH]c3cn2)c1", "note": "[Compound 120, N-(5-(3-(4-(Pyridin-4-yl)-1H-indol-2-yl)-1H-pyrazolo[3,4-c]pyridin-5-yl)pyridin-3-yl)pivalamide]", "pEC50": 5.99}
{"smiles": "CC(C)(C)CC(=O)Nc1cncc(-c2cc3c(-c4cc5c(-c6ccncc6)cccc5[nH]4)n[nH]c3cn2)c1", "note": "[Compound 128, 3,3-Dimethyl-N-(5-(3-(4-(pyridin-4-yl)-1H-indol-2-yl)-1H-pyrazolo[3,4-c]pyridin-5-yl)pyridin-3-yl)butanamide]", "pEC50": "< 5.00"}
{"smiles": "O=C(Nc1cncc(-c2cc3c(-c4cc5c(-c6ccncc6)cccc5[nH]4)n[nH]c3cn2)c1)C1CCC1", "note": "[Compound 133, N-(5-(3-(4-(Pyridin-4-yl)-1H-indol-2-yl)-1H-pyrazolo[3,4-c]pyridin-5-yl)pyridin-3-yl)cyclobutanecarboxamide]", "pEC50": 6.41}
{"smiles": "c1cc(-c2ccncc2)c2cc(-c3n[nH]c4cnc(-c5cncnc5)cc34)[nH]c2c1", "note": "[Compound 139, 3-(4-(Pyridin-4-yl)-1H-indol-2-yl)-5-(pyrimidin-5-yl)-1H-pyrazolo[3,4-c]pyridine]", "pEC50": 6.62}
{"smiles": "O=C(Nc1cncc(-c2cc3c(-c4cc5c(N6CCCCC6)cccc5[nH]4)n[nH]c3cn2)c1)C1CC1", "note": "[Compound 188, N-(5-(3-(4-(Piperidin-1-yl)-1H-indol-2-yl)-1H-pyrazolo[3,4-c]pyridin-5-yl)pyridin-3-yl)cyclopropanecarboxamide]", "pEC50": 5.86}
{"smiles": "FC1(F)CCN(Cc2cncc(-c3cc4c(-c5cc6c(N7CCCCC7)cccc6[nH]5)n[nH]c4cn3)c2)C1", "note": "[Compound 194, 5-(5-((3,3-Difluoropyrrolidin-1-yl)methyl)pyridin-3-yl)-3-(4-(piperidin-1-yl)-1H-indol-2-yl)-1H-pyrazolo[3,4-c]pyridine]", "pEC50": 6.16}
{"smiles": "CN1CCN(c2cccc3[nH]c(-c4n[nH]c5cnc(-c6cncc(NC(=O)C7CCC7)c6)cc45)cc23)CC1", "note": "[Compound 245]", "pEC50": 5.34}
{"smiles": "CC(C)(C)CC(=O)Nc1cncc(-c2cc3c(-c4cc5ccccc5[nH]4)n[nH]c3cn2)c1", "note": "[Compound 268, N-(5-(3-(1H-Indol-2-yl)-1H-pyrazolo[3,4-c]pyridin-5-yl)pyridin-3-yl)-3,3-dimethylbutanamide]", "pEC50": 5.00}
{"smiles": "O=C(Nc1cncc(-c2cc3c(-c4cc5ccccc5[nH]4)n[nH]c3cn2)c1)C1CCCCC1", "note": "[Compound 275, N-(5-(3-(1H-Indol-2-yl)-1H-pyrazolo[3,4-c]pyridin-5-yl)pyridin-3-yl) cyclohexanecarboxamide]", "pEC50": 5.49}
{"smiles": "CS(=O)(=O)NCc1cc(F)cc(-c2cccc3[nH]c(-c4n[nH]c5cnc(-c6cncc(NC(=O)c7ccccc7)c6)cc45)cc23)c1", "note": "[Compound 487, N-(5-(3-(4-(3-Fluoro-5-(methylsulfonamidomethyl)phenyl)-1H-indol-2-yl)-1H-pyrazolo[3,4-c]pyridin-5-yl)pyridin-3-yl)benzamide]", "pEC50": 5.30}
{"smiles": "Nc1cncc(-c2cc3c(-c4cc5ncccc5[nH]4)n[nH]c3cn2)c1", "note": "[Compound 507, 5-(3-(1H-Pyrrolo[3,2-b]pyridin-2-yl)-1H-pyrazolo[3,4-c]pyridin-5-yl) pyridin-3-amine]", "pEC50": "< 5.00"}
{"smiles": "c1cnc2cc(-c3n[nH]c4cnc(-c5cncc(CNCC6CCCC6)c5)cc34)[nH]c2c1", "note": "[Compound 529, 1-(5-(3-(1H-Pyrrolo[3,2-b]pyridin-2-yl)-1H-pyrazolo[3,4-c]pyridin-5-yl)pyridin-3-yl)-N-(cyclopentylmethyl)methanamine]", "pEC50": "< 5.00"}
{"smiles": "Fc1ccccc1-c1cccc2[nH]c(-c3n[nH]c4cnc(-c5cn[nH]c5)cc34)cc12", "note": "[Compound 567, 3-(4-(2-Fluorophenyl)-1H-indol-2-yl)-5-(1H-pyrazol-4-yl)-1H-pyrazolo[3,4-c]pyridine]", "pEC50": 7.57}
{"smiles": "c1cc(N2CCCCC2)c2cc(-c3n[nH]c4cnc(-c5cncc(OC6CCCCC6)c5)cc34)[nH]c2c1", "note": "[Compound 635, 5-(5-(Cyclohexyloxy)pyridin-3-yl)-3-(4-(piperidin-1-yl)-1H-indol-2-yl)-1H-pyrazolo[3,4-c]pyridine]", "pEC50": 5.88}
{"test_system": "primary human fibroblasts derived from IPF patients (LL29 cells) treated with TGF-β1; α-smooth muscle actin (αSMA)", "experiment": "Inhibition of the fibrotic process: αSMA staining in TGF-β1 treated primary human fibroblasts from IPF patients (LL29 cells)", "type": "cell-based", "conditions": "Fibroblast, 96 h, TGF-β1 20 ng/mL, 4 days, αSMA, 10 μM, read-out: percent inhibition at 10 μM (given for EC50 of >10 μM)", "method_in_brief": "as §1", "units": {"inhibition at 10 µM": "%"}}
{"smiles": "CC(C)(C)CC(=O)Nc1cncc(-c2cc3c(-c4cc5c(-c6ccncc6)cccc5[nH]4)n[nH]c3cn2)c1", "note": "[Compound 128, 3,3-Dimethyl-N-(5-(3-(4-(pyridin-4-yl)-1H-indol-2-yl)-1H-pyrazolo[3,4-c]pyridin-5-yl)pyridin-3-yl)butanamide]", "inhibition at 10 µM": 23.7}
{"smiles": "Nc1cncc(-c2cc3c(-c4cc5ncccc5[nH]4)n[nH]c3cn2)c1", "note": "[Compound 507, 5-(3-(1H-Pyrrolo[3,2-b]pyridin-2-yl)-1H-pyrazolo[3,4-c]pyridin-5-yl) pyridin-3-amine]", "inhibition at 10 µM": 0}
{"smiles": "c1cnc2cc(-c3n[nH]c4cnc(-c5cncc(CNCC6CCCC6)c5)cc34)[nH]c2c1", "note": "[Compound 529, 1-(5-(3-(1H-Pyrrolo[3,2-b]pyridin-2-yl)-1H-pyrazolo[3,4-c]pyridin-5-yl)pyridin-3-yl)-N-(cyclopentylmethyl)methanamine]", "inhibition at 10 µM": 0}
